How the values were obtained:
TM3 cells = assay: CCK8 cell viability of H2O2 damaged TM3 cells; type: cell-based, mouse; conditions: inhibitor pretreated 1 h, then 62.5 μg/mL CYCSE 24 h, 0.4 mM H2O2 2 h
Experimental: TM3 cells: purchased from Shanghai Cell Bank of the Chinese Academy of Sciences. The culture conditions are DMEM/F12+5% horse serum+2.5% fetal bovine serum+1% penicillin-streptomycin, 37° C., 5% CO2 incubator. TM3 cells were placed in a 96-well plate at a density of 3×10^4 cells/mL and divided into 6 groups: control group, H2O2 group, CYCSE group, ERK inhibitor ([…] group, AKT inhibitor ([…] group, and sildenafil group. After the two inhibitors were pretreated for 1 […] was added and processed for 24 h, and 0.4 mM H2O2 was added and processed for 2 h. After the two kinds of cells were treated separately, CCK8 was added and incubated at 37° C. for 1 h. A microplate reader was used to measure absorbance at 450 nm and calculate the cell viability.

[1] = tested on: ERK and AKT signal pathways in TM3 cells; assay: Western blot of p-ERK/ERK and p-AKT/AKT in TM3 cells; type: cell-based, mouse; conditions: H2O2 damaged TM3 cells
Experimental: TM3 cells: purchased from Shanghai Cell Bank of the Chinese Academy of Sciences. The culture conditions are DMEM/F12+5% horse serum+2.5% fetal bovine serum+1% penicillin-streptomycin, 37° C., 5% CO2 incubator. TM3 cells were placed in a 96-well plate at a density of 3×10^4 cells/mL and divided into 6 groups: control group, H2O2 group, CYCSE group, ERK inhibitor ([…] group, AKT inhibitor ([…] group, and sildenafil group. After the two inhibitors were pretreated for 1 […] was added and processed for 24 h, and 0.4 mM H2O2 was added and processed for 2 h. The TM3 cells or the MCECs were placed in 6-well plates, and the CYCSE was added to process for 24 h and 0.4 mM H2O2 to process for 2 h. The cells were collected and washed twice with PBS, wherein supernatant was discarded. The testicular tissue in liquid nitrogen was ground into powder. 200 μL of RIPM lysis solution (containing 1% PMSF) was added to each of the above samples to lyse on ice for 30 min and centrifuge at 12000 r for 10 min at 4° C., wherein supernatant was stored at -20° C. for later use. A BCA protein content detection kit was used to determine protein content in the samples and to adjust protein concentration to the same level. An equal volume of 2× loading buffer was added to an appropriate amount of the extracted protein sample, which was mixed well, boiled for 10 min, and stored at -20° C. […]

[2] = tested on: kidney-yang deficiency rats; assay: Body weight, organ weight and routine indicators in hydrocortisone-induced kidney-yang deficiency rat model; type: in vivo, SD rats; conditions: HCT 10 d + 4.4 mg/kg sildenafil 10 d
Experimental: SD rats were randomly divided into 5 groups with 10 rats in each group. The SD rats were fed with 25 mg/kg hydrocortisone (HCT) for 10 days to construct a kidney-yang deficiency model, and then gave different concentrations of the CYCSE for 10 days. Specific groups were as follows: control group (distilled water 20 d); kidney-yang deficiency group (HCT 10 d+distilled water 10 […] low-concentration group (HCT 10 d+60 mg/kg […] high-concentration group (HCT 10 d+80 mg/kg […]); sildenafil group (HCT 10 d+4.4 mg/kg sildenafil 10 d). After treatment, the rats were anesthetized by intraperitoneal injection of 3% sodium pentobarbital.

NO/cGMP signal pathway = assay: ELISA of iNOS and cGMP in kidney-yang deficiency rats; type: in vivo, SD rats; conditions: CYCSE 60, 80 mg/kg; sildenafil 4.4 mg/kg; vs model group
Experimental: SD rats were randomly divided into 5 groups with 10 rats in each group. The SD rats were fed with 25 mg/kg hydrocortisone (HCT) for 10 days to construct a kidney-yang deficiency model, and then gave different concentrations of the CYCSE for 10 days. Specific groups were as follows: control group (distilled water 20 d); kidney-yang deficiency group (HCT 10 d+distilled water 10 […] low-concentration group (HCT 10 d+60 mg/kg […] high-concentration group (HCT 10 d+80 mg/kg […]); sildenafil group (HCT 10 d+4.4 mg/kg sildenafil 10 d). After treatment, the rats were anesthetized by intraperitoneal injection of 3% sodium pentobarbital. After the animal was anesthetized, blood was taken from the celiac artery and spontaneously coagulated for 25 min, and centrifuged at 2500 rpm/min for 10 min at 4° C. Supernatant was collected, namely serum samples. Contents of inducible nitric oxide synthase (iNOS), cyclic guanosine phosphate (cGMP) and testosterone in serum were detected according to instructions of rat ELISA test kit (BPRO, Shanghai, China).

[3] = tested on: testis tissue of kidney-yang deficiency rats; assay: Testicular tissue morphology (HE staining) in kidney-yang deficiency rats; type: in vivo, SD rats; conditions: HCT 10 d + 4.4 mg/kg sildenafil 10 d
Experimental: (§1) SD rats were randomly divided into 5 groups with 10 rats in each group. The SD rats were fed with 25 mg/kg hydrocortisone (HCT) for 10 days to construct a kidney-yang deficiency model, and then gave different concentrations of the CYCSE for 10 days. Specific groups were as follows: control group (distilled water 20 d); kidney-yang deficiency group (HCT 10 d+distilled water 10 d); CYCSE low-concentration group (HCT 10 d+60 mg/kg CYCSE 10 d); CYCSE high-concentration group (HCT 10 d+80 mg/kg CYCSE 10 d); sildenafil group (HCT 10 d+4.4 mg/kg sildenafil 10 d). After treatment, the rats were anesthetized by intraperitoneal injection of 3% sodium pentobarbital.
(§2) Cavernosum tissue and testicular tissue were fixed in 4% paraformaldehyde, and then embedded in paraffin and sectioned. Testicular tissue sections were stained with hematoxylin-eosin method and Masson method respectively. Cavernosum tissue sections were stained with hematoxylin-eosin method. The testicular tissue sections were processed by immunohistochemistry, and testicular leydig cells were labeled with 3β-HSD antibody. A Nikon posture microscope was used to take photos.

testicular leydig cells = assay: Immunohistochemistry of testicular leydig cells (3β-HSD); type: in vivo, SD rats; parameters: key: negative (−); weakly positive (+); ranging from negative (−) to weakly positive (+) to strong positive (+++); strong positive (+++); conditions: HCT 10 d + 4.4 mg/kg sildenafil 10 d
Experimental: as §1, §2

[4] = tested on: sperm of kidney-yang deficiency rats; assay: Sperm count and vitality check; type: in vivo, SD rats; conditions: HCT 10 d + 4.4 mg/kg sildenafil 10 d
Experimental: SD rats were randomly divided into 5 groups with 10 rats in each group. The SD rats were fed with 25 mg/kg hydrocortisone (HCT) for 10 days to construct a kidney-yang deficiency model, and then gave different concentrations of the CYCSE for 10 days. Specific groups were as follows: control group (distilled water 20 d); kidney-yang deficiency group (HCT 10 d+distilled water 10 […] low-concentration group (HCT 10 d+60 mg/kg […] high-concentration group (HCT 10 d+80 mg/kg […]); sildenafil group (HCT 10 d+4.4 mg/kg sildenafil 10 d). After treatment, the rats were anesthetized by intraperitoneal injection of 3% sodium pentobarbital. At the end of administration, epididymis samples were collected, excess tissue was removed, and blood was washed away with saline. The samples were fixed with tweezers, so as to cut a tail side of the epididymis longitudinally. The sperm was released in a petri dish containing PBS, and a hemocytometer was used to detect number and viability of the sperm under a microscope after waiting at room temperature for 10 minutes (sperm viability is divided into 4 levels: a) move forward rapidly in a straight line, b) move forward slowly in a straight line, c) move locally, d) no move).

[5] = tested on: primary cavernous endothelial cells (MCECs); assay: CCK8 cell viability of H2O2 damaged MCECs; type: cell-based, C57BL/6 mice; conditions: CYCSE 31.3 and 62.5 μg/mL or sildenafil 24 h, then 0.4 mM H2O2 2 h; dose-dependent
Source text: Eight-week-old C57BL/6J mice were sacrificed by cutting necks. Lower abdomen was sterilized with alcohol cotton balls, a lower abdomen incision was made with tweezers and surgical scissors, and the abdominal fascia and foreskin glands were peeled off to expose cavernosum tissue. The cavernosum tissue was separated with surgical scissors and placed in Hank's balanced salt solution containing 10% penicillin-streptomycin, and urethra and neurovascular bundles were removed under microscope to obtain clean cavernosum tissue. The obtain tissue was washed 3 times in PSB containing 10% penicillin-streptomycin, cut into small pieces of 1-2 mm^3 with surgical scissors, and placed at bottoms of a pre-cooled 24-well plate with 2 pieces in each well. Each well was supplemented with 200 μL Matrigel containing 50 ng/mL VEGF-A. The MCECs were cultured in a simulated 3D environment to induce proliferation. Then the MCECs were incubate in a 37° C., 5% CO2 incubator for 14 days until the bottoms of the wells were full. After aspirating the medium, 200 μL Dispase was added to each well for digestion in the incubator for 1 h, and an equal volume of 10 mM EDTA was added to stop the digestion. […] A microplate reader was used to measure absorbance at 450 nm and calculate the cell viability.

[6] = tested on: mice with oligoasthenospermia induced by tripterygium glycosides; conditions: cited from earlier work

SMILES: COc1cccc(-c2cc(=O)c3ccccc3o2)c1N [PD98059]
- Effect of inhibitor on the protective effect of CYCSE on TM3 cell viability (TM3 cells): significantly block the protective effect
- CYCSE-induced increase of p-ERK/ERK and p-AKT/AKT in TM3 cells with inhibitor [1]: significantly down-regulated

SMILES: CCCc1nn(C)c2c(=O)[nH]c(-c3cc(S(=O)(=O)N4CCN(C)CC4)ccc3OCC)nc12 [Sildenafil]
- Body weight [2]: 329.37 ± 10.82 g
- Epididymal weight [2]: 0.85 ± 0.01 g
- Testicular weight [2]: 3.03 ± 0.06 g
- cGMP content (NO/cGMP signal pathway): no significant difference between the sildenafil group and the high concentration group
- iNOS content (NO/cGMP signal pathway): no significant difference between the sildenafil group and the high concentration group
- Diameter of seminiferous tubules [3]: 357.61 ± 8.03 μm
- Germinal cell layer thickness [3]: 72.50 ± 5.47 μm
- Immunoexpression of 3β-HSD (testicular leydig cells) (testicular leydig cells): +
- Sperm number [4]: 4.63 ± 0.56^Δ *10^6/mL
- Sperm motility a ([4]; grade a): 17.67 ± 2.05^Δ %
- Sperm motility a + b ([4]; grades a + b): 37.67 ± 2.05^ΔΔ %
- Cell viability of oxidation-damaged MCECs [5]: no salvage effect

SMILES: C[C@@H]1CC[C@@]2(OC1)O[C@H]1C[C@H]3[C@@H]4CC=C5C[C@@H](O)CC[C@]5(C)[C@H]4CC[C@]3(C)[C@H]1[C@@H]2C [diosgenin]
- Erectile latency [6]: shorten
- MDA content in testicular tissues [6]: reduce
- Organ coefficient of reproductive organs and immune organs [6]: improve
- SOD activity in testicular tissues [6]: increase
- Sperm quality [6]: improve
